Here are results for four molecules from patent US20220387615A1, “COMPOSITIONS COMPRISING ENZYME CLEAVABLE LINKER PLATFORMS AND CONJUGATES THEREOF” (Danmarks Tekniske Universitet, priority 2019, published 2022).

One experiment has as its system Helix pomatia Type H-1. The experiment is described as follows: Cleavage by Helix pomatia Type H-1. Format: biochemical. Particulars: phosphate buffer pH 5, 6 and 7.4; room temperature. As for the experimental part: The above compound was dissolved in a minimum of DMSO and added to Helix pomatia Type H-1 in phosphate buffer solutions at pH 5, 6 and 7.4, respectively at room temperature. Aliquots were taken out at different time points and LC-MS and HPLC used for analysis. LCMS analysis required a small organic extraction of each aliquot in order to remove the protein prior to analysis. Analytical HPLC allowed direct injection and offers high sensitivity and reliability. Caffeine was included as an internal standard. The compound was almost fully hydrolysed at 5 min.

In the next experiment the test system is acid phosphatase. The experiment is described as follows: Cleavage by acid phosphatase. The class given is biochemical. Particulars: phosphate buffer pH 5, 6 and 7.4; room temperature. As for the experimental part: The above compound was dissolved in a minimum of DMSO and added to acid phosphatase in phosphate buffer solutions at pH 5, 6 and 7.4, respectively at room temperature. Aliquots were taken out at different time points and LC-MS and HPLC used for analysis. LCMS analysis required a small organic extraction of each aliquot in order to remove the protein prior to analysis. Analytical HPLC allowed direct injection and offers high sensitivity and reliability. Caffeine was included as an internal standard. The compound was almost fully hydrolysed at 1 hour.

The test system of a further experiment is amano lipase. Nature of the experiment: Cleavage by Amano lipase. The class given is biochemical, Pseudomonas fluorescens. Particulars: phosphate buffer pH 5, 6 and 7.4; room temperature. As for the experimental part:
The above compound was dissolved in a minimum of DMSO and added to amano lipase in phosphate buffer solutions at pH 5, 6 and 7.4, respectively at room temperature. Aliquots were taken out at different time points and LC-MS and HPLC used for analysis. LCMS analysis required a small organic extraction of each aliquot in order to remove the protein prior to analysis. Analytical HPLC allowed direct injection and offers high sensitivity and reliability. Caffeine was included as an internal standard. The compound was almost fully hydrolysed at 5 min.

The subject of experiment [1] is Amano Lipase from Pseudomonas fluorescens. The experiment is described as follows: Lipase test of linker X8: cleavage and model drug release. Format: biochemical. Particulars: for time to full conversion to X10 and X11: 1 mg/mL lipase, room temperature. How it is done:
Compound X8 was exposed to lipase in phosphate buffered solutions at pH 6 and 7.4. […] The pH 6 and 7.4 tests were conducted to determine if any difference in the rate of intramolecular lactonisation would be observed. Initial tests involved incubation of the linker (1 mM in 2% DMSO/buffer) with 1 mg/mL lipase (>20 U/mL) at room temperature (FIG. 16). Caffeine was included as an internal standard. Aliquots were taken out at different time points and LC-MS and HPLC used for analysis.

For the molecule `O=C(NCCNC(=O)c1ccccc1)OCc1ccc(OS(=O)(=O)O)cc1`, the “time at which the compound was almost fully hydrolysed” value in the experiment on Helix pomatia Type H-1 is on record as 5 min.
Turning to `O=C(NCCOP(=O)(O)O)c1ccccc1`, the “time at which the compound was almost fully hydrolysed” value with acid phosphatase is 1 h.
Turning to `CCCCCCCC(=O)OCCNC(=O)c1ccccc1`, the “time at which the compound was almost fully hydrolysed” value with amano lipase stood at 5 min.
Turning to `CCCCCCCC(=O)OCCN(CC(=O)OCC(=O)c1ccc(Br)cc1)C(=O)c1ccccc1` [Example X8, 2-(N-(2-(2-(4-bromophenyl)-2-oxoethoxy)-2-oxoethyl)benzamido)ethyl octanoate], in experiment [1] (FIG. 17, conditions not given), the “non-linear conversion to products, duration” value came to 114 min. Further, the “time to full conversion to X10 and X11” value in experiment [1] (pH 6) was 60 min; in experiment [1] (pH 7.4, linker 1 mM in 2% DMSO/buffer), below 15 min.
